The values below come from PMC10379611 (International Journal of Molecular Sciences, 2023).

Entries after “also recorded” stand apart in the source; their conditions may differ.

One series addresses ABCB1 (Homo sapiens, UniProt P08183). In words: ABCB1 ATPase activity in Sf9 membrane vesicles. On the set-up: purchased Solvo Biotechnology, Budapest. Particulars: insect cell membrane vesicles. Format: biochemical. The method, then: ATPase activity was measured in Sf9 membrane vesicles containing the respective human ABC transporters, as described in our earlier work. For ABCG2, the cholesterol level in the vesicles was increased to the level of mammalian cell membranes to obtain full activity. In brief, membrane vesicles (5 μg protein/sample) were incubated with 3 mM Mg-ATP and various concentrations of test compounds. Background ATPase activity of membranes was determined by applying the general ABC transporter inhibitor sodium orthovanadate (1 mM). Measurements were carried out for 20 min at 37 °C. The amount of phosphate liberated from ATP was detected using a colorimetric method and a VictorX3 plate reader at 660 nm Abs. Reference activators (50 µM verapamil for ABCB1 and 1 µM quercetin for ABCG2) served as positive controls.

In another series the target is T1, ENT2 (Homo sapiens, UniProt Q14542).
T1 construct: expressed in transfected cells; host or cells: MDCKII (lentiviral transduction)
T1 sequence (Q14542 1-456): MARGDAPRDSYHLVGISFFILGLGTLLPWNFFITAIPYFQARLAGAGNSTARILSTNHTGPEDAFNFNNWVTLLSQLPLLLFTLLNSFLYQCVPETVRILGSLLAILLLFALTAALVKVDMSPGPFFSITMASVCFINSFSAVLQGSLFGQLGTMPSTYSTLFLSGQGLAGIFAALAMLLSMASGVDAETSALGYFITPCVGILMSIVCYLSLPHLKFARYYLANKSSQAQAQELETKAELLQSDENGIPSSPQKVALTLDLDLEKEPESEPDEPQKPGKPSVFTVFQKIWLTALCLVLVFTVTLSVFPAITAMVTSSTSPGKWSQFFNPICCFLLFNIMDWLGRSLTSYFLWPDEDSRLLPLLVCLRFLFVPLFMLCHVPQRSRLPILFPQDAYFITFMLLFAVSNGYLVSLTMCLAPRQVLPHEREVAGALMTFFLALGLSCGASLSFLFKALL
The series can be described thus: ENT2-mediated adenosine uptake in ENT2-MDCKII cells. The series is classed as cell-based. The method, then:
ENT and CNT transporter interactions were investigated in transporter-overexpressing cell lines. Madin-Darby Canine Kidney II (MDCKII) cell lines overexpressing the human uptake transporters CNT1, CNT2, ENT1, and ENT2 were generated via lentiviral transduction. Cell cultures were maintained in Dulbecco’s modified Eagle’s medium (DMEM) and 4500 mg/L of glucose supplemented with GlutaMax^TM, 10% v/v fetal bovine serum (FBS), 100 units/mL penicillin, and 100 µg/mL streptomycin (all from Gibco/ThermoFisher, Waltham, MA, USA) at 37 °C in 5% CO2 at 95% humidity. For uptake inhibition assays, transporter-expressing cells and mock-transduced control cells were seeded on 96-well tissue culture plates at a density of 1 × 10^5 cells/well. […] To determine the amounts of accumulated radiolabeled substrates, cell lysates mixed with a liquid scintillation cocktail were measured with a MicroBeta2 microplate counter (PerkinElmer, Singapore).
Transporter-specific accumulation of the probe substrate was calculated using the following formula: ACCSpec = ACCTRP − ACCMock, where ACCTRP is the accumulation of the probe in transporter-expressing cells and ACCMock is the accumulation of the probe in control cells. Relative transporter-specific accumulation values were calculated as percentages of the control value (with vehicle only).

ABCB1, sequence (P08183 whole entry): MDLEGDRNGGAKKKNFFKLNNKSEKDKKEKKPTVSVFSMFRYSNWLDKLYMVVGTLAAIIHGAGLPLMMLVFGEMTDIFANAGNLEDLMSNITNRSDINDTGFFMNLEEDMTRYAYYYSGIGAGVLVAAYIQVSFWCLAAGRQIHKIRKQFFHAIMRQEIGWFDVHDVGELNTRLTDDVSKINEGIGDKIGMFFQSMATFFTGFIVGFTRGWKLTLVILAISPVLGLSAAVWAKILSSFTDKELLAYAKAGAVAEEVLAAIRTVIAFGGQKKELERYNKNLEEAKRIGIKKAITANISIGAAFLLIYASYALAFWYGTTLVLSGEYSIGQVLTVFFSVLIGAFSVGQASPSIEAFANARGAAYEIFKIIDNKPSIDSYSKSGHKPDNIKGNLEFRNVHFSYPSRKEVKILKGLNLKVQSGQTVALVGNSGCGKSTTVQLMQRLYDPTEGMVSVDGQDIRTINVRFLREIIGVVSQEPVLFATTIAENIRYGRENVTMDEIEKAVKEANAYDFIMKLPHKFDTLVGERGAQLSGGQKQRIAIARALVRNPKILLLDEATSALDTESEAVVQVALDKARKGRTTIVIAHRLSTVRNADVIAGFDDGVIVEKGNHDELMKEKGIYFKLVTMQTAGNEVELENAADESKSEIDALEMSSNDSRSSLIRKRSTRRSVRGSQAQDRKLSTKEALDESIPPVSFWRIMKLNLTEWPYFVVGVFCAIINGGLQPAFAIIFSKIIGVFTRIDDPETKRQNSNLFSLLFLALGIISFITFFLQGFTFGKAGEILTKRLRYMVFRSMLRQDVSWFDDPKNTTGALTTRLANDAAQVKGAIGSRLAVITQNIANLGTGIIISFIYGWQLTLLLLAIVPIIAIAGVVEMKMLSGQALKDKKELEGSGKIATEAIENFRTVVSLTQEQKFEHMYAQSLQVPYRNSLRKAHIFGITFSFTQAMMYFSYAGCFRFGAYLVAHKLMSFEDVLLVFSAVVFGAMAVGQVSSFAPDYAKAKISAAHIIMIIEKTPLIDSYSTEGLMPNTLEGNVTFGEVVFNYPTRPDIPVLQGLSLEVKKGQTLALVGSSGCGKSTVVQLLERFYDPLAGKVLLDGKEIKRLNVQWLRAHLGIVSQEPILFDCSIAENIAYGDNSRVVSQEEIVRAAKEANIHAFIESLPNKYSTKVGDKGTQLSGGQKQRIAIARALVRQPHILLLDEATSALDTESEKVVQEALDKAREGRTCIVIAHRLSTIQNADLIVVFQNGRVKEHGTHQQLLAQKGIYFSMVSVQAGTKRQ

In the case of `CC(C)(C)[C@H](NC(=O)C(F)(F)F)C(=O)N1C[C@H]2[C@@H]([C@H]1C(=O)N[C@H](C#N)C[C@@H]1CCNC1=O)C2(C)C` [Nirmatrelvir], at ABCB1, the “effect on transport-coupled ATPase activity of ABCB1” value was “significantly increased; also recorded: stimulated”.
With `CC(C)C(=O)OC[C@H]1O[C@@H](n2ccc(NO)nc2=O)[C@H](O)[C@@H]1O` [EIDD-2801, Molnupiravir], the “inhibition of adenosine uptake by ENT2” value on ENT2 is “only mildly inhibited”.
